#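 Exposure lasted 48 hours, with cells grown in 96-well plates and compounds tested at five concentrations. GI50 = concentration required for 50% inhibition of growth. TGI is the concentration that stops growth completely.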
# System: MDA-MB-468 breast
# Assay: NCI-60 cell line screen, 48 h
SMILES,GI50,TGI
COc1ccccc1CNCCCN1C(=O)c2ccc3c4c(ccc(c24)C1=O)C(=O)N(CCCNCCNCCCN)C3=O,456 nM,2220 nM
Cc1cc(C)c(NC(=O)c2sc3nc4c(cc3c2N)C(=O)CCC4)c(C)c1,651 nM,4390 nM
CCCCC(CC)COC(=O)C[N+](C)(C)CCOC(c1ccccc1)c1ccccc1 (stereo unspecified),1460 nM,3120 nM
Nc1nc(Nc2cccnc2)sc1C(=O)c1ccccc1F,1370 nM,4040 nM
Cc1cc2ncnn2cc1Nc1ncc2c(n1)n(C1CCOCC1)c(=O)n2C,4370 nM,44800 nM
CN1CCN(Cc2ccc(NC(=O)c3cncc(C#Cc4cnn5cccnc45)c3)cc2C(F)(F)F)CC1,8350 nM,22800 nM
CCOC(=O)C1CCN(S(=O)(=O)/N=C2/NC(=O)NC2=C(Cl)Cl)CC1,387 nM,2080 nM
COc1cc2ncnc(-n3ncc4cc(NC(=O)Nc5ccccc5)ccc43)c2cc1OC,1180 nM,3350 nM
COc1ccc(C(=O)c2cc(OC)c(OC)c(OC)c2)cc1/C=C/C(=O)c1ccc(F)cc1,4630 nM,27100 nM
C=C(C)[C@@H]1CC[C@]2(CO)CC[C@]3(C)[C@H](CC[C@@H]4[C@@]5(C)C=C(C#N)C(=O)C(C)(C)[C@@H]5CC[C@]43C)[C@@H]12,1300 nM,3850 nM
CN1CCN(CCCNc2nc3ccc(Oc4ccc(NC(=O)Nc5cc(C(F)(F)F)ccc5F)cc4)cc3[nH]2)CC1,3330 nM,6570 nM
COc1ccc(C(=O)c2cc(C)c(OC)c(C)c2)c(OC)c1O,489 nM,> 100000 nM
COc1c(C(=O)/C=C/c2ccccc2)c(O)cc2occc12,6770 nM,21400 nM
NC(=O)c1cc(Cl)ccc1NC(=O)/C=C/c1ccccc1,1100 nM,11500 nM
CC/C=C\C[C@H](O)C/C=C1/C(=O)C=C[C@@H]1C/C=C\CCCC(=O)OC,1680 nM,3770 nM
CC(C)c1ccc(-c2cc(-c3cn[nH]c3-c3ccccn3)ccn2)cc1,10500 nM,24700 nM
C=C1C(=O)O[C@H]2[C@H]1CC/C(COC(=O)NCCCCNC(=O)OC/C1=C/CC[C@@]3(C)O[C@H]3[C@H]3OC(=O)C(=C)[C@@H]3CC1)=C\CC[C@@]1(C)O[C@@H]21,426 nM,2000 nM
COc1ccc(/C=C/c2c(C(=O)/C=C/c3ccccc3)c(C)nc3ccccc23)cc1,1780 nM,3480 nM
C/C(=N\Nc1ccc(Cl)cn1)c1ccc2ccccc2n1,2880 nM,> 100000 nM

SMILES,GI50,TGI
O=C(Nc1n[nH]c2cc(-c3ccccc3)ccc12)C1CC1,4000 nM,> 25000 nM
NS(=O)(=O)c1ccc(-c2ccc3c(NC(=O)C4CC4)n[nH]c3c2)cc1,> 21600 nM,> 25000 nM
CC1(C)C(=O)/C(=C\c2cccnc2)C[C@]2(C)[C@H]3CC[C@@H]4[C@H]5[C@H](C(=O)/C=C/c6cccnc6)CC[C@]5(C(=O)O)CC[C@@]4(C)[C@]3(C)CC[C@@H]12,2140 nM,5700 nM
COCC[C@H]1CCC/C=C/[C@@H]2C[C@H](O)C[C@H]2[C@H](O)/C=C/C(=O)O1,24.5 nM,71.4 nM
CCNCCNc1cc(-c2ccc(C(F)(F)F)cc2)c(C#N)c2nc3ccccc3n12,688 nM,2140 nM
COc1ccc(C(=O)c2cc(C)c(OC)c(C)c2)cc1OC(=O)CCl,89.4 nM,75200 nM
Cc1cc(C(=O)Nc2ccc3cc(CN4CCOCC4)ccc3n2)c(C)n1-c1ccccc1,171 nM,7110 nM
O=S(=O)(c1ccc(NC(=S)NC23CC4CC(CC(C4)C2)C3)cc1)N1CCCCC1,2270 nM,6840 nM
COc1cc(OC)c(C(=O)/C=C/c2cccc(C(F)(F)F)c2)c(OC)c1,755 nM,2010 nM
COc1ccc(-c2nc3ccccn3c2/C=C/C(=O)c2cc(OC)c(OC)c(OC)c2)cc1OC,2280 nM,5710 nM
C=C(C)[C@H]1Cc2c(ccc3c2O[C@@H]2COc4cc(OC)c(OC)cc4[C@@H]2C3=O)O1,81.6 nM,> 100000 nM
CCc1nc2cc(F)c(/C=C/C(=O)NO)cc2c(=O)n1CCc1ccccc1,217 nM,761 nM
COC(=O)Nc1nc2ccc(C3(c4ccc(F)cc4)OCCO3)cc2[nH]1,159 nM,1190 nM
O=C1/C(=C(/c2ccccc2)N2CCOCC2)Cc2ccccc21,501 nM,1900 nM
CC1=CC(=O)C=CC1=O,1570 nM,3210 nM
COc1ccc(-c2[nH]c3ccc(OC)cc3c2/C=C(\C#N)S(=O)(=O)c2ccccc2)cc1,1330 nM,44000 nM
CCCC(CCC)NCC(O)c1cc(-c2ccc(C(F)(F)F)cc2)nc(C(F)(F)F)c1 (stereo unspecified),1580 nM,2980 nM
Cc1ccc(NC(=O)c2cccc(C(C)(C)C#N)c2)cc1Nc1ccc2ncn(C)c(=O)c2c1,15800 nM,> 100000 nM
COc1ccc2[nH]c3c4[nH]c5ccc(OC)cc5c4c4c(c3c2c1)C(=O)NC4=O,> 25000 nM,> 25000 nM

# Source: PubChem BioAssay (NCI)
